The values that follow come from US20250041285A1, “MODIFYING THE […] OF A GENE ENCODING AN CYCLOOXYGENASE ENZYME BY TREATING A HUMAN SUBJECT WITH A NITROXIDE” (priority 2021, published 2025).

The test system of test [1] is COX1. Put plainly: Treatment of human subject with Tempol, serum level of COX1. The class given is in vivo. Conditions: 2000 mg per day for 180 days. The procedure: A 70-kilogram human subject over the age of 65 and having a cardiovascular disease is identified for an increased expression level of COX1. Or a 70-kilogram human subject over the age of 65 is known to have a cardiovascular disease and/or […] expression level of COX1. The human subject is administered a dose of 2000 mg of Tempol (or another nitroxide antioxidant) per day for 180 days. This may be administered in a single dose, or may be administered as a number of smaller doses over a 24-hour period: for example, four 500-mg doses at […]. Following treatment, the serum level of COX1, is decreased.
A 70-kilogram human subject at risk of developing colorectal cancer is identified for increased expression level of COX1. Or a 70-kilogram human subject is known to be at risk of developing colorectal cancer and/or have increased expression level of COX1. The human subject is administered a dose of 2000 mg of Tempol (or another nitroxide antioxidant) per day for 180 days. This may be administered in a single dose, or may be administered as a number of smaller doses over a 24-hour period: for example, four 500-mg doses at […]. Following treatment, the serum level of COX1, is decreased. […]
A 70-kilogram human subject having an infection (e.g., a bacterial, fungal, or viral infection) is identified for increased expression level of COX1. Or a 70-kilogram human subject is known to have an infection and/or have increased expression level of COX1. The human subject is administered a dose of 2000 mg of Tempol (or another nitroxide antioxidant) per day for 180 days. This may be administered in a single dose, or may be administered as a number of smaller doses over a 24-hour period: for example, four 500-mg doses at […]. Following treatment, the serum level of COX1, is decreased.

For test [2], the system named is PTGS1 (COX1). Put plainly: Effects of Tempol on gene expression in cardiac tissue, chip-based microarray. The class given is in vivo. Conditions: mice, Tempol 5 mg/g of food from 14 to 31 months after birth. The procedure:
To assess the effects of Tempol on gene expression, Tempol was administered to experimental mice at a dose of 5 mg/g of food from 14 months to 31 months after birth. Mice receiving the same food without the addition of Tempol were used as a negative control. At the age of 31 months, the experimental animals were sacrificed and the hearts were surgically removed. The expression of a broad spectrum of genes in the cardiac tissue was assessed using chip-based microarray technology. Such chips are well known in the art and are widely used to assess gene expression.

As for `CC1(C)CC(O)CC(C)(C)N1[O]` [Tempol, 4-hydroxy-2,2,6,6-tetramethylpiperidine-1-oxyl], the “serum level of COX1 following treatment” value in test [1] (Example 2: 70-kilogram human subject over the age of 65 with increased COX1 expression) is on record as “decreased”; in test [1] (Example 3: 70-kilogram human subject with increased COX1 expression), “decreased”; in test [1] (Example 4: 70-kilogram human subject over the age of 65 having a cardiovascular disease) it was “decreased”; in test [1] (Example 5: 70-kilogram human subject at risk of developing colorectal cancer) it was “decreased”; in test [1] (Example 6: 70-kilogram human subject at risk of developing an autoimmune disease (e.g., rheumatoid arthritis)), “decreased”; in test [1] (Example 7: 70-kilogram human subject at risk of developing a condition due to aging), “decreased”. In addition, the “serum level of COX1 following treatment” value is recorded as “decreased” in test [1] (Example 8: 70-kilogram human subject at risk of developing a neurodegenerative disease (e.g., Parkinson's Disease)) and “decreased” in test [1] (Example 9: 70-kilogram human subject having an infection (bacterial, fungal, or viral)). In test [2] (hearts at 31 months, vs same food without Tempol, P-value 0.006), the “Fold change (gene expression in cardiac tissue after Tempol administration)” value is listed as −1.18. Also, in test [2] (microarray), the “COX1 expression in cardiac tissue” value is listed as “statistically significant decrease in expression”.
